Assay [1] deals with T1, Human 5-HT1A Receptor (Homo sapiens, UniProt P08908).
T1 construct: expressed in transfected cells; host or cells: CHO cells
T1 sequence (P08908 1-422): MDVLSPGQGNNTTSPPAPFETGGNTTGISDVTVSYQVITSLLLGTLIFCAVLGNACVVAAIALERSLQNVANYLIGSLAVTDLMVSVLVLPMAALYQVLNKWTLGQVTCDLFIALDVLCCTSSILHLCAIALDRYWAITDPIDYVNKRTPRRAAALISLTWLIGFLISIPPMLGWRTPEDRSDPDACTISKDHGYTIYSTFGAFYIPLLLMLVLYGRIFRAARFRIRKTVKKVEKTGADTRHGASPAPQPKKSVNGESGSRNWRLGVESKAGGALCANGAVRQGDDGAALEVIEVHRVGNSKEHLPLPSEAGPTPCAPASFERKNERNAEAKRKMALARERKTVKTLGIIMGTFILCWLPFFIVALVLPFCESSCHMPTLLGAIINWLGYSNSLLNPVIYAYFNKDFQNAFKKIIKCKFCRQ
The assay is described as follows: 8-OH-DPAT binding, human 5-HT1A receptor cell line. Particulars: stably transfected CHO cells, 8-OH-DPAT ligand 1.5 nM; read-out: h5-HT1A Affinity, Ki. In short, it runs like this: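 Membranes from CHO cells stably expressing human 5-HT1A, incubated 30 min at room temperature in 50 mM Tris pH 7.5 with 1.5 nM radioligand (8-OH-DPAT). Non-specific binding defined with […]; filtration on PEI-soaked GF/B filters. Single-point inhibition at […], then Ki for actives.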

In assay [2] the target is T2, serotonin transporter (Rattus norvegicus, UniProt P31652).
T2 construct: frontal cortical membranes prepared from male S.D. rats; from tissue; host or cells: rat frontal cortex membranes (male Sprague-Dawley)
T2 sequence (P31652 whole entry): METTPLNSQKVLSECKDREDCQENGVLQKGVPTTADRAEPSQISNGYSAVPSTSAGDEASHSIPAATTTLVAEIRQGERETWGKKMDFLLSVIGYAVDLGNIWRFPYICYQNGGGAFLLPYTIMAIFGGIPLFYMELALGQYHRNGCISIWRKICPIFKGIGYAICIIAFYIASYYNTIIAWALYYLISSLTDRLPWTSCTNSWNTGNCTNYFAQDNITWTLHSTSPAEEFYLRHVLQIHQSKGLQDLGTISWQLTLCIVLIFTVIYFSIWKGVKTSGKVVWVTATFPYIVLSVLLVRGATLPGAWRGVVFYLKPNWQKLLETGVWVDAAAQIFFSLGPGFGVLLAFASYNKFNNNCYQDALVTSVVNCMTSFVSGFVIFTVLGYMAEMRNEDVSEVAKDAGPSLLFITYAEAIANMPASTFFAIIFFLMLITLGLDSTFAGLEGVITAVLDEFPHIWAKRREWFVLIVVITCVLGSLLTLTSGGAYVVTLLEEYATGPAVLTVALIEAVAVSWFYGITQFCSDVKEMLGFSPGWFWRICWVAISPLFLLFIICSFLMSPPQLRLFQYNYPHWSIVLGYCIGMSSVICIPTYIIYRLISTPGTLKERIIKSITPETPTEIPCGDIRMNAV
The assay is described as follows: 3H-paroxetine binding to the serotonin transporter, rat frontal cortical membranes. Particulars: values printed without parentheses, 3H-paroxetine 0.1 nM, read-out: rb-5-HH-T, Ki. In outline:
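Male Sprague-Dawley rat frontal cortical membranes incubated with 0.1 nM ³H-paroxetine for 60 min at 25 °C, test compound at one to eight concentrations; 10 μM fluoxetine defined specific binding. Filtration separated bound ligand, counted by scintillation. IC50 from nonlinear regression, converted to Ki by Cheng–Prusoff.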

For assay [3], the target named is h-5-HT-T (Homo sapiens, UniProt P31645). Description: h-5-HT-T IC50 (Table 1, no method described).
h-5-HT-T, sequence (P31645 whole entry): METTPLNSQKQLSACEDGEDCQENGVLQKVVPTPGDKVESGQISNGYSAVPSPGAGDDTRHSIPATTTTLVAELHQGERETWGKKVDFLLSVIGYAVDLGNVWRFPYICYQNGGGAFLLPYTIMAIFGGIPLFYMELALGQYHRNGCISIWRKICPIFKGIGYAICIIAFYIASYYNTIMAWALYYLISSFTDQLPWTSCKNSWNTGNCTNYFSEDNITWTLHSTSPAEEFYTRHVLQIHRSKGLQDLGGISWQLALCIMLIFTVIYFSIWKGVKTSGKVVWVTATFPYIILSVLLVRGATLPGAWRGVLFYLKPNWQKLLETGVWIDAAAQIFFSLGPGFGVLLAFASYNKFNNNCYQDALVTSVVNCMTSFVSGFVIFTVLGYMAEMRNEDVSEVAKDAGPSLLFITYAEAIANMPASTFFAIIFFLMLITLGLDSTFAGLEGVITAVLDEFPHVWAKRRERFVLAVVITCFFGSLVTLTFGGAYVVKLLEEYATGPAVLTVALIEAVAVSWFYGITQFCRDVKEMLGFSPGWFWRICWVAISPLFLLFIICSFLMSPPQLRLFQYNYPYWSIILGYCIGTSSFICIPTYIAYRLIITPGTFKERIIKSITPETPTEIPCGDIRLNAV
In assay [4] the target is T1, Human 5-HT1A Receptor. The assay is described as follows: cAMP RIA in human 5-HT1A receptor cell line. The class given is cell-based. Particulars: CHO cells; for EC50: superscript a, read-out: c-AMP, (EC50)^a; for EC50 / Emax / c-AMP, (Emax)^c: forskolin stimulated cAMP; for Emax / c-AMP, (Emax)^c: superscript c; for Emax: read-out: c-AMP, (Emax)^c; for IC50: superscript b, reversal of agonist activity, read-out: c-AMP, (IC50)^b. In short, it runs like this: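 Stably transfected CHO cells preincubated in Krebs with 500 uM IBMX, then given forskolin (1 uM final) and test compound (0.1 and 1 uM initial screen) for 10 min at 37° C; cAMP measured by RIA as % inhibition. Antagonist mode: 6 concentrations preincubated 20 min before agonist plus forskolin; IC50 for reversal.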

The target in assay [5] is T3, cloned human 5-HT1A receptors (Homo sapiens, UniProt P08908).
T3 construct: expressed in transfected cells
T3 sequence (P08908 1-422): T1 sequence (P08908 1-422)
The assay is described as follows: 35S-GTPγS binding assay. Particulars: for EC50: superscript a, potency of stimulatory effect; for IC50: superscript b, reversal of 8-OH-DPAT effect; for Emax: superscript c, maximum stimulatory effect; for Imax (maximum inhibitory effect) / GTPγS, (Imax)^d: superscript d, maximum inhibitory effect. The class given is biochemical. From the text:
The ^35S-GTPγS binding assay similar to that used by Lazareno and Birdsall (Br. J. Pharmacol., 1993, 109: 1120) was used to determine the test compound's ability to affect the binding of ^35S-GTPγS to membranes containing cloned human 5-HT1A receptors. Agonists produce an increase in binding whereas antagonists produce no increase but rather reverse the effects of the standard agonist 8-OH-DPAT. The test compound's maximum stimulatory effect is represented as the Emax, while its potency is defined by the EC50. The test compound's maximum inhibitory effect is represented as the Imax, while its potency is defined by the IC50. […] was used to determine maximum agonist or antagonist response.

Structures can show the parent of a compound that is named as a salt. Where two headings read alike, the source gives them in different places. Marks after values point to notes of the source that are not given here.

On to `Cc1ccc2c3c(ccc2n1)OC[C@H](CNCCC1CCc2[nH]c4ccc(F)cc4c2C1)O3` (mixture of isomers) [Example 40, [2-(6-Fluoro-2,3,4,9-tetrahydro-1H-carbazol-3-yl)ethyl]{[(2S)-8-methyl-2,3-dihydro[1,4]dioxino[2,3-f]quinolin-2-yl]methyl}amine dihydrochloride], for which the Ki in assay [1] came to 680 nM; in assay [2] it was 48.4 nM. Also, the IC50 in assay [3] stood at 1.24 ± 0.16 nM; in assay [5], 75 nM. For the same molecule, the EC50 in assay [4] is 4.06 nM; in assay [5] it was 7.1 nM. Also, the figures for the maximum response (Emax) in assay [4] and in assay [5] were 100% and 46%, respectively. Further, the Imax (maximum inhibitory effect) in assay [5] was 34%.

As to `Cc1ccc2c3c(ccc2n1)OC[C@H](CNCC1CCc2sc4ccc(F)cc4c2C1)O3` (single isomer, unassigned) [31 diastereomer 1], the Ki in assay [1] was determined as 1.14 nM; in assay [2], 9.9 nM. Further, the IC50 turned out to be 337 nM in assay [3] and 155 nM in assay [5]. Further, the Emax in assay [4] (CHO) was 62%. For the same molecule, in assay [5], the “GTPγS, (Imax)^d” value is listed as 95%^d.

For the molecule `Cc1ccc2c3c(ccc2n1)OC[C@H](CNCC1CCc2sc4ccc(F)cc4c2C1)O3` (single isomer, unassigned) [31 diastereomer 2], the values for the Ki in assay [1] and in assay [2] were 3.67 nM and 51.5 nM, respectively. Moreover, the IC50 in assay [3] amounted to 547 nM; in assay [5], 290 nM. Further, in assay [4], the “c-AMP, (Emax)^c” value is recorded as 62%^c. For the same molecule, the “GTPγS, (Imax)^d” value in assay [5] came to 65%^d.

As for `Cc1ccc2c3c(ccc2n1)OC[C@H](CNCC1CCc2sc4ccccc4c2C1)O3` (single isomer, unassigned) [32 diastereomers 1], the values for the inhibition constant Ki in assay [1] and in assay [2] were 8.07 nM and > 1000 nM, respectively. Also, the IC50 was 67.6 nM in assay [4] and 494 nM in assay [5]. The molecule further returned an Imax (maximum inhibitory effect) in assay [5] of 100%.

`Cc1ccc2c3c(ccc2n1)OC[C@H](CNCC1CCc2c(sc4cc(F)ccc24)C1)O3` (single isomer, unassigned) [39 diastereomer 1]: the Ki was 7.09 nM in assay [1] and 210 nM in assay [2]. In addition, the IC50 in assay [3] stood at 2060 nM; in assay [5] it was 645 nM. Moreover, in assay [4] (CHO), the Emax is 62%. The molecule also yielded an Imax (maximum inhibitory effect) in assay [5] of 100%.

For `Cc1ccc2c3c(ccc2n1)OC[C@H](CNCC1CCc2c(sc4cc(F)ccc24)C1)O3` (single isomer, unassigned) [39 diastereomer 2], the values for the Ki in assay [1] and in assay [2] were 2.16 nM and 184 nM, respectively. Moreover, the IC50 in assay [3] is 1440 nM; in assay [5], 117 nM. Also, the “c-AMP, (Emax)^c” value in assay [4] is given as 75%^c. Further, the “GTPγS, (Imax)^d” value in assay [5] is recorded as 80%^d.

As for `Cc1ccc2c3c(ccc2n1)OC[C@H](CNCC[C@@H]1CCc2[nH]c4ccc(F)cc4c2C1)O3` (single isomer, unassigned) [Example 41, dihydrochloride], the results for the Ki in assay [1] and in assay [2] were 242 nM and 9.45 nM, respectively. Besides, 0.58 ± 0.14 nM corresponded to half-maximal inhibition in assay [3] (IC50). The EC50 in assay [4] came out at 4.13 nM; in assay [5], 24.8 nM. Besides, the Emax in assay [4] and in assay [5] was 94% throughout.

`Cc1ccc2c3c(ccc2n1)OC[C@H](CN[C@@H]1CCc2c([nH]c4ccc(F)cc24)C1)O3` (single isomer, unassigned) [Example 47, dihydrochloride]: in assay [1], the Ki was determined as 186 nM. Also, the Ki in assay [2] is 12.8 nM. Also, the IC50 in assay [3] was determined as 102 ± 7.07 nM. In assay [4], the EC50 is 300 nM and the Emax came out at 59%.

Regarding `Cc1ccc2c3c(ccc2n1)OC[C@H](CN[C@H]1CCc2c([nH]c4ccc(F)cc24)C1)O3` (single isomer, unassigned) [Example 48, dihydrochloride], the Ki in assay [1] turned out to be 7.4 nM; in assay [2], 46.7 ± 2.07 nM. In addition, the values for the IC50 in assay [3] and in assay [4] were 31.9 ± 5.34 nM and 168 nM, respectively.

As to `CCCN(CC1CCc2[nH]c3ccc(F)cc3c2C1)C[C@H]1COc2ccc3nc(C)ccc3c2O1` (stereo partly drawn) [Example 51, N-[(6-Fluoro-2,3,4,9-tetrahydro-1H-carbazol-3-yl)methyl]-N-{[(2S)-8-methyl-2,3-dihydro[1,4]dioxino[2,3-f]quinolin-2-yl]methyl}propan-1-amine dihydrochloride dihydrate], the inhibitory constant (Ki) in assay [1] was found to be 1290 nM. Besides, the Ki in assay [2] came to 88 nM. In assay [3], this molecule yielded an IC50 of 22.3 ± 3.32 nM. Besides, in assay [4], the EC50 turned out to be 171 nM and the Emax came out at 59%.

As for `Cc1ccc2c3c(ccc2n1)OC[C@H](CN(CC1CCc2[nH]c4ccc(F)cc4c2C1)C1CCC1)O3` (stereo partly drawn) [Example 53, N-[(6-Fluoro-2,3,4,9-tetrahydro-1H-carbazol-3-yl)methyl]-N-{[(2S)-8-methyl-2,3-dihydro[1,4]dioxino[2,3-f]quinolin-2-yl]methyl}cyclobutanamine dihydrochloride dihydrate], the Ki in assay [1] was 5740 nM. Also, the inhibitory constant (Ki) in assay [2] amounted to 498 nM. For the same molecule, the IC50 in assay [3] is 39.1 ± 3.85 nM. Also, in assay [4], the EC50 was 126 nM and the Emax was 68%.

For `CCC(C)N(C[C@@H]1CCc2[nH]c3ccc(F)cc3c2C1)C[C@H]1COc2ccc3nc(C)ccc3c2O1` (stereo partly drawn) [Example 58, N-{[(3R)-6-Fluoro-2,3,4,9-tetrahydro-1H-carbazol-3-yl]methyl}-N-{[(2S)-8-methyl-2,3-dihydro[1,4]dioxino[2,3-f]quinolin-2-yl]methyl}butan-2-amine monohydrochloride monohydrate], the figures for the Ki in assay [1] and in assay [2] were 1190 nM and 358 nM, respectively. This molecule also returned an IC50 in assay [3] of 113 ± 22.5 nM. Also, the Emax in assay [4] turned out to be 22%.

As to `Cc1ccc2c3c(ccc2n1)OC[C@H](CN(C[C@@H]1CCc2[nH]c4ccc(F)cc4c2C1)C1CCCC1)O3` [Example 59, N-{[(3R)-6-Fluoro-2,3,4,9-tetrahydro-1H-carbazol-3-yl]methyl}-N-{[(2S)-8-methyl-2,3-dihydro[1,4]dioxino[2,3-f]quinolin-2-yl]methyl}cyclopentanamine monohydrochloride monohydrate], the Ki in assay [1] worked out at 3120 nM. Moreover, the Ki in assay [2] turned out to be 362 nM. This molecule also returned an IC50 in assay [3] of 115 ± 16.4 nM. In assay [4], the EC50 was 431 nM and the Emax came out at 81%.

Consider `Cc1ccc2c3c(ccc2n1)OC[C@H](CN(C)C[C@H]1CCc2c(c4cc(F)ccc4n2C)C1)O3` [Example 68, {[(3S)-6-Fluoro-9-methyl-2,3,4,9-tetrahydro-1H-carbazol-3-yl]methyl}methyl{[(2S)-8-methyl-2,3-dihydro[1,4]dioxino[2,3-f]quinolin-2-yl]methyl}amine monohydrochloride monohydrate], for which the Ki in assay [1] worked out at 3720 nM; in assay [2] it was 293 nM. In assay [3], inhibition was half-maximal at 15.2 ± 0.74 nM (IC50). Further, the Emax in assay [4] came out at 34.8%.

Turning to `Cc1ccc2c3c(ccc2n1)OC[C@H](CN(C)C[C@@H]1CCc2c(c4cc(F)ccc4n2C)C1)O3` [Example 69, {[(3R)-6-Fluoro-9-methyl-2,3,4,9-tetrahydro-1H-carbazol-3-yl]methyl}methyl{[(2S)-8-methyl-2,3-dihydro[1,4]dioxino[2,3-f]quinolin-2-yl]methyl}amine monohydrochloride monohydrate], in assay [1], the Ki was 1590 nM. Further, in assay [2], the Ki is 220 nM. The same molecule gave an IC50 in assay [3] of 35.8 ± 0.71 nM. Also, in assay [4], the EC50 amounted to 548 nM and the Emax was found to be 63%.

Values taken from patent US7297704B2, “Cycloalkyfused indole, benzothiophene, benzofuran and idene derivatives” (Wyeth, priority 2005, dated 2007).
